Consider six compounds from US8293261B2, “Intravascular implant” (Terumo Kabushiki Kaisha, priority 2005, dated 2012).

The data set relates to human vascular smooth muscle cells. Type of data set: cell-based. Conditions: for IC50: human vascular smooth muscle cells, 48 hours with substance, WST-1 absorbance at 450 nm. As to the method: Substances indicated in Table 1 were used to carry out a cell cytotoxicity test using human vascular smooth muscle cells.
More particularly, human vascular smooth muscle cells were implanted into individual wells of a 96-well microtitor plate along with a culture solution (commercial name: SmGM-2 Bullet kit, made by Cambrex Corporation), followed by cultivation in a carbon dioxide gas incubator at 37° C. for 48 hours. The culture solution dissolving MgCl2 that was used as a chemical substance to be tested was added thereto in every […] so that a final concentration was at 1×10^−7 to 10^−1 M, followed by cultivation for further 48 hours.
Next, WST-1 (La Roche Ltd.) was added, followed by cultivation for 4 hours. WST-1 taken in the human vascular smooth muscle cells was extracted, and the absorbance at 450 nm of the resulting extract was measured by means of a microreader (commercial name: iEMS reader MF, made by Labsystems Inc.). It will be noted that WST-1 taken in the human vascular smooth muscle cells emits light when oxidized and reduced by means of an electron transmission system of mitochondria. Accordingly, WST-1 emits light by reaction only with living cells.
A graph was made wherein an abscissa indicates a concentration of a chemical substance to be subjected to the cytotoxicity test and an ordinate indicates a ratio of a quantity of emitted light of cells subjected to treatment with a chemical substance to be tested to a quantity of emitted light of non-treated cells for reference. The degree of cell cytotoxicity was quantified as a concentration of a chemical substance (IC50 value) at which a ratio of a quantity of a dye taken in the treated cells to a quantity of a dye taken in non-treated cells was at 50%.
Such a test was carried out with respect to other types of chemical substances (NdCl2, GdCl2, Ycl3, CrCl2, and NiCl2) to be subjected to the cytotoxicity test to likewise obtain IC50 values.

Regarding `[Cl][Cr][Cl]` [CrCl2], the half-maximal inhibitory concentration (IC50) was 0.11 mM.

Turning to `[Cl-].[Cl-].[Nd+2]` [NdCl2], the “cell cytotoxicity (in words)” value was “very low” and the IC50 worked out at 74 mM.

With `[Cl-].[Cl-].[Mg+2]` [MgCl2], the “cell cytotoxicity (in words)” value is recorded as “very low” and the IC50 is 34 mM.

For the compound `[Cl][Ni][Cl]` [NiCl2], the IC50 was determined as 0.75 mM.

On to `[Cl][Gd][Cl]` [GdCl2], for which the “cell cytotoxicity (in words)” value is “very low” and the IC50 was 81 mM.

For `[Cl-].[Cl-].[Cl-].[Y+3]` [Ycl3], it took 0.36 mM to reach half-maximal inhibition (IC50).
